Experimental data reported in ChEMBL document CHEMBL1201862, “PubChem BioAssay data set” (2004).
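All cell lines were grown in 96-well plates and treated with compound for 48 hours. Abbreviation: GI50, concentration required for 50% inhibition of growth.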 The source made the active and inactive calls. Cut-off read from the data, not from the text of the source: active = GI50 up to about 1.1 µM and inactive = higher.

Tests used:
Assay in all cases: NCI-60 cell line screen, 48 h
[1] = test system: DLD-1
[2] = test system: DMS-114
[3] = test system: HOP-18
[4] = test system: KM-20L2
[5] = test system: SNB-78
[6] = test system: XF498
[7] = test system: M19-MEL
[8] = test system: LXFL 529
[9] = test system: RXF 631

Structure (SMILES)	GI50 [1]	GI50 [2]	GI50 [3]	GI50 [4]	GI50 [5]	GI50 [6]	GI50 [7]	GI50 [8]	GI50 [9]
C=CCc1cccc(/C=N\N/C(N)=N/O)c1O	4.84 µM (inactive)	2.28 µM (inactive)	5.09 µM (inactive)	3.98 µM (inactive)	21.5 µM (inactive)	4.27 µM (inactive)	–	–	–
Cc1ccc2cc3cccc(C(=O)NCCN(C)C)c3nc2c1	0.935 µM (active)	0.929 µM (active)	2.23 µM (inactive)	0.733 µM (active)	1.37 µM (inactive)	0.977 µM (active)	0.977 µM (active)	–	–
CN1CCN(c2cc(-c3cc4ccccc4o3)oc(=O)c2C#N)CC1	76 µM (inactive)	69.2 µM (inactive)	–	89.5 µM (inactive)	> 100 µM (inactive)	> 100 µM (inactive)	–	81.7 µM (inactive)	41.4 µM (inactive)
CC(=O)OC(C)(C)/C=C/C(=O)[C@](C)(O)[C@H]1[C@H](O)C[C@@]2(C)[C@@H]3CC=C4[C@@H](C[C@H](O)C(=O)C4(C)C)[C@]3(CO)C(=O)C[C@]12C [CUCURBITACIN A]	0.337 µM (active)	0.483 µM (active)	0.148 µM (active)	0.303 µM (active)	0.33 µM (active)	0.374 µM (active)	0.451 µM (active)	0.34 µM (active)	–
Oc1c(CNCCCN2CCCC2)cc(Cl)c2cccnc12	3.22 µM (inactive)	3.05 µM (inactive)	4.95 µM (inactive)	3.78 µM (inactive)	14.2 µM (inactive)	2.56 µM (inactive)	2.52 µM (inactive)	–	–
O=C1OC(c2ccccc2)=N/C1=C\c1ccc(Oc2ccc(Cl)c(Cl)c2)cc1	48.9 µM (inactive)	15.4 µM (inactive)	> 100 µM (inactive)	56.6 µM (inactive)	25.9 µM (inactive)	–	36.9 µM (inactive)	25.6 µM (inactive)	–
COc1cccc(C2C(C(=O)O)=C(CO)Oc3cc4c(cc32)OCO4)c1OC (stereo not drawn)	> 100 µM (inactive)	–	> 100 µM (inactive)	> 100 µM (inactive)	> 100 µM (inactive)	9.25 µM (inactive)	> 100 µM (inactive)	> 100 µM (inactive)	> 100 µM (inactive)
O=P1(c2ccccc2)Nc2ccccc2SSc2ccccc2N1	17 µM (inactive)	19.5 µM (inactive)	19.2 µM (inactive)	17.9 µM (inactive)	24.2 µM (inactive)	17.8 µM (inactive)	18.7 µM (inactive)	–	–
CC1Oc2c(c(O)cc3oc(=O)cc(-c4ccccc4)c23)C(=O)C1C (stereo not drawn)	> 100 µM (inactive)	–	> 100 µM (inactive)	> 100 µM (inactive)	> 100 µM (inactive)	> 100 µM (inactive)	–	> 100 µM (inactive)	> 100 µM (inactive)
O=c1oc2ccccc2c(O)c1C(C/C(CCN1CCCC1)=N\Nc1ccccc1)c1ccccc1 (stereo not drawn)	99.5 µM (inactive)	–	91.8 µM (inactive)	> 100 µM (inactive)	> 100 µM (inactive)	> 100 µM (inactive)	61.2 µM (inactive)	84.5 µM (inactive)	–
O=C(OCc1ccccc1)C(Cc1ccccc1)N(Cc1ccccc1)Cc1ccccc1 (stereo not drawn)	> 100 µM (inactive)	7.5 µM (inactive)	–	> 100 µM (inactive)	> 100 µM (inactive)	21.8 µM (inactive)	76.7 µM (inactive)	21.9 µM (inactive)	–
CC(=O)OC1CC2(O)C(CCC3(C)C(c4ccc(=O)oc4)CCC32O)C2(C)C1=CC(O)C1OC12 (stereo not drawn)	0.0506 µM (active)	0.025 µM (active)	0.048 µM (active)	0.067 µM (active)	0.0442 µM (active)	0.0693 µM (active)	0.0502 µM (active)	–	–
CN(C)CCNC(=O)c1cc(Cl)cc2ccc(-c3ccccc3)nc12	3.3 µM (inactive)	3.46 µM (inactive)	3.52 µM (inactive)	2.65 µM (inactive)	8.13 µM (inactive)	2.18 µM (inactive)	3.15 µM (inactive)	–	–
COC(=O)C1=C(C)N2CCOC2(C)C(C(=O)OC)C1c1ccc[nH]1 (stereo not drawn)	> 100 µM (inactive)	> 100 µM (inactive)	–	> 100 µM (inactive)	–	–	> 100 µM (inactive)	> 100 µM (inactive)	–
COc1ccc2c3c1O[C@]1(C)C34CCN(C)C(C2)C42C=C[C@@]1(OC)c1c(O)ccc(O)c12	> 100 µM (inactive)	> 100 µM (inactive)	> 100 µM (inactive)	> 100 µM (inactive)	61.8 µM (inactive)	> 100 µM (inactive)	–	> 100 µM (inactive)	–
Cc1ccc(S(=O)(=O)N(CC(=O)O)c2ccccc2)cc1	> 100 µM (inactive)	–	> 100 µM (inactive)	> 100 µM (inactive)	–	–	> 100 µM (inactive)	> 100 µM (inactive)	–
Cc1cc(C)cc(Sc2c([N+](=O)[O-])ncn2C)c1	11.9 µM (inactive)	12.2 µM (inactive)	1.28 µM (inactive)	35.2 µM (inactive)	13.6 µM (inactive)	16.6 µM (inactive)	22.6 µM (inactive)	7.83 µM (inactive)	16 µM (inactive)
C=C1C(=O)O[C@H]2[C@H]1[C@@H](OC(=O)C=C(C)C)CC1=C[C@@H](C[C@@]3(C)O[C@@H]23)OC1=O	1.6 µM (inactive)	–	3.05 µM (inactive)	–	–	2.05 µM (inactive)	3.08 µM (inactive)	–	–
C=CCC(O[Si](C)(C)C(C)(C)C)c1cc(O[Si](C)(C)C(C)(C)C)ccc1OC (stereo not drawn)	> 70.3 µM (inactive)	> 59.7 µM (inactive)	> 100 µM (inactive)	> 100 µM (inactive)	> 49.2 µM (inactive)	> 58.5 µM (inactive)	–	–	–
NC1=C(C(=O)O)C(=O)C(Nc2c(O)cccc2C(=O)O)=CC1=O	31.6 µM (inactive)	> 100 µM (inactive)	> 100 µM (inactive)	> 100 µM (inactive)	> 100 µM (inactive)	> 100 µM (inactive)	18.7 µM (inactive)	> 100 µM (inactive)	> 100 µM (inactive)
O=[N+]([O-])c1ccccc1C1SCc2nc3ccccc3n21 (stereo not drawn)	82 µM (inactive)	66.2 µM (inactive)	> 100 µM (inactive)	–	–	13.7 µM (inactive)	–	92.9 µM (inactive)	93.1 µM (inactive)
